Assay results: US20220089540A1 (Board of Trustees of Michigan State University, priority 2019, published 2022)
“And” between values parts separate entries of the source, which are not always exact repeats. Equal entries are not always repeated.

Columns and labels:
SREBP = SREBP induction in human liver (HepG2) cells, RT-PCR; type: cell-based; parameters: key to SREBP: fold induction vs DMSO control; conditions: for SREBP: 300 nM, Control 1.00, lower numbers indicate better safety, Table 2
Method: The SREBP transcription factor is involved in triglyceride synthesis, and its activation correlates with increased triglycerides in vivo. […] Lower numbers indicate better safety. […] Lower numbers indicate better safety. Also, for Table 6, SREBP activation was measured as fold induction compared to DMSO, where a lower value indicates the compound is an improvement over a control.

PD-L1 = PD-L1 induction in macrophages or RAW264.7 cells with cancer cell conditioned media (flow cytometry); type: cell-based, mouse; conditions: for PD-L1: Table 2, Control 39.8, higher numbers indicate better upregulation; for PD-L1 Levels: Table 4, Control 43.3
Method: RAW 264.7 mouse macrophage-like (ATCC) and E18-14C-27 (Wu et al., Cancer Res. 62, 6376-6380 (2002)) cells were cultured in DMEM supplemented with 10% fetal bovine serum (FBS). RAW 264.7 cells were cultured at 50000/well in a 6 well plate for 24 hours to determine PD-L1 levels. E18-14C-27 cells were cultured for 72 hours in the presence of LG268 for protein levels. Conditioned media was collected from E18-14C-27 at 60-70% confluence for 24 hours; media was then collected and centrifuged at 900 rpm for 5 minutes to eliminate any cell debris.
For PD-L1 staining, RAW 264.7 cells were plated at 25000 cells/ml in 6 well plates for 24 hours before adding conditioned media from E18-14C-27 and LG268. RAW 264.7 cells were cultured for additional 24 hours with E18-14C-27 conditioned media and LG268. […] THP-1 cells were stained and analyzed for the levels of PD-L1 following the same protocol.
Inhibitory receptors on lymphocytes such as PD-1 (programmed cell death protein 1) are important immune checkpoints that protect against autoimmunity as the interaction between PD-L1 (ligand) and the PD-1 receptor expressed on immune cells suppresses T cell activity. Immuno-oncology is revolutionizing cancer treatment, and enormous research efforts are ongoing to identify drugs that upregulate PD-L1 so that they can be combined with checkpoint inhibitors to boost efficacy. Macrophages or RAW264.7 cells are treated with conditioned media from cancer cells and rexinoids, and PD-L1 expression determined by flow cytometry. Higher numbers indicate better upregulation of PD-LI.
Using methods described herein, macrophages or RAW264.7 cells were treated with selected rexinoids and with conditioned media from cancer cells. Structures of the rexinoids are shown below.
PD-L1 expression was determined by flow cytometry.

[1] = system: inducible nitric oxide synthase (iNOS); assay: iNOS suppression / NO assay in LPS-stimulated macrophages or RAW264.7 cells (Griess reaction); type: cell-based, mouse; conditions: for activity at 0.125 µM / activity at 0.5 µM: RAW264.7, Control 100, lower numbers indicate higher efficacy, read-out: NO Assay; for activity at 0.125 µM: 125 nM; for activity at 0.5 µM: 500 nM
In short: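 RAW264.7 cells or macrophages incubated with rexinoids (300 nM, or 100 nM/300 nM, or a concentration series) and stimulated with 1–2 ng/ml LPS for 24 h. Nitric oxide released into medium measured by Griess reaction; values given as percent of LPS-stimulated control, % inhibition, or IC50.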

human RXRa = biological target: T1, human RXRa (Homo sapiens, UniProt P19793); assay: RXR activation luciferase reporter assay; type: cell-based; conditions: luciferase, Control 0, higher numbers indicate higher potency
T1 sequence (P19793 1-462): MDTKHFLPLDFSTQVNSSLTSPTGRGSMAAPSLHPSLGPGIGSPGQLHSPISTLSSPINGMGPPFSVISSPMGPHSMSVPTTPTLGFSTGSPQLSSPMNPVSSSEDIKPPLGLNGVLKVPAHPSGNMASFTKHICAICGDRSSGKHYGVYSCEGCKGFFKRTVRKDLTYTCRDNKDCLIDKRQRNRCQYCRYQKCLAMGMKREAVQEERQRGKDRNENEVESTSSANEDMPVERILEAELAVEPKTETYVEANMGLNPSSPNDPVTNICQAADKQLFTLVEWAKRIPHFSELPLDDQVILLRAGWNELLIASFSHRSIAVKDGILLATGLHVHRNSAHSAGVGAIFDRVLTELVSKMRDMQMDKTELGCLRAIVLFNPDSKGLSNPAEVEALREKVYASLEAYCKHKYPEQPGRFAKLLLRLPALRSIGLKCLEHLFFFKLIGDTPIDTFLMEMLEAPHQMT
From the text: Rexinoids are agonists for the retinoid X receptors (RXRs). In this assay, the human RXRa promoter is functionally linked to a luciferase reporter gene. Changes in luciferase expression served as a sensitive surrogate measure of RXR activity. Higher numbers indicate higher potency.

[2] = Toxicity in A/J mice with lung tumors fed rexinoids plus carboplatin and paclitaxel; type: in vivo; conditions: 100 mg/kg diet, 7 weeks
Method: A/J mice with lung tumors (detected by ultrasound) were fed rexinoids in their diets (at 100 mg/kg diet) and injected twice every other week with carboplatin and paclitaxel.

[3] = system: mammary gland tumors of MMTV-Neu mice; assay: MMTV-Neu mouse model of HER2 positive breast cancer, rexinoid in diet; conditions: 100 mg/kg diet, LG268 5 days
Method: Tumors or mammary glands were homogenized in EBC buffer (1M Tris pH 8, 5M NaCl) with the same protease inhibitors and 10% NP-40 and incubated on ice for 30 min. Protein concentrations were determined by the BCA assay (Sigma-Aldrich). Proteins were resolved by SDS-PAGE, transferred to a nitrocellulose membrane and analyzed with the following antibodies: vinculin, p-STAT1, p-STAT3, p-STAT5 and mouse and rabbit secondary antibodies (Cell Signaling); PD-1, CD206 (Abcam); PD-L1 (R&D). ImageJ was used to quantify the immunoblots, and results were plotted and statistically analyzed using Prism 6. All images shown are representative of 3 independent experiments.
One third of the tumor, mammary gland and spleen removed from MMTV-neu or MMTV-PyMT mice were minced separately and incubated in digestion media consisting of collagenase (300 U/ml, Sigma), dispase (1 U/ml, Worthington), and DNAse (2 U/ml, Calbiochem) for 30 minutes at 37° C. with stirring. Cells were then passed through a 40 μm cell strainer (BD Falcon), and red blood cells eliminated with lysis solution. […] Propidium iodide staining was used to exclude dead cells.
One third of the tumor, spleen and one mammary was removed from MMTV-neu and PyMT mice and fixed in 10% phosphate-buffered formalin for 48 hours, embedded in paraffin blocks, and sectioned (5-6 μm). Hydrogen peroxide was used to quench endogenous peroxidase activity. Sections were immunostained with antibodies raised against CD206 (1:200, Abcam), Gr1 (1:40, BM8, R&D), CD8 (1:40, Biolegend), FOXP3 (1:50, EBiosciences), PD-1 (1:100, Abcam), PD-L1 (1:50, Abcam), cleaved caspase 3 (Cell Signaling) and visualized with biotinylated anti-rabbit or anti-rat secondary antibodies (Cell Signaling or Vector Labs). Signal was detected using a DAB substrate (Cell Signaling) following the manufacturer's recommendations. Sections were counterstained with hematoxylin (Vector Labs).
Both rexinoid treatments were 100 mg/kg of diet, which is equivalent to 25 mg/kg of body weight (FIG. 1B).

RAR receptor = conditions: cited from earlier work
[4] = Triglycerides in rodent models; type: in vivo
Lung Cancer Model = assay: Lung cancer model rank order; type: in vivo
[5] = bexarotene 10 days, western blot

Work on `CC(C)CN(c1cc(C(C)(C)C)cc(C(C)(C)C)c1)c1ccc(C(=O)O)cn1` [Compound 18, 6-[(3,5-di-tert-butylphenyl)(2-methylpropyl)amino]pyridine-3-carboxylic Acid] yielded an SREBP (SREBP) of 1.52, a PD-L1 (PD-L1; 100 nM) of 58.5 and an activity at 0.125 µM ([1]; Mus musculus) of 52%. For the same molecule, the activity at 0.5 µM ([1]; Mus musculus) was 11.5%, the RXR assay (human RXRa; 100 nM) was 12881 and the RXR assay (human RXRa; 2500 nM) was 35605. For the same molecule, the “toxicity findings (liver, triglycerides, cholesterol, fur)” value [2] was “normal coats” and the “toxicity findings (liver, triglycerides, cholesterol, fur)” value ([2]; listed as MSU-42011) was “less toxicity than LG100268”.
With `C=C(c1ccc(C(=O)O)cc1)c1cc2c(cc1C)C(C)(C)CCC2(C)C` [Bexarotene, bexarotene] the “PD-L1 expression in tumors vs control” value ([3]; CW-V-125 10 days, western blot and/or immunohistochemistry) was “did not significantly induce”, the “myeloid derived suppressor cells (CD45+, CD11b+, Gr1+) in tumors” value ([3]; bexarotene 10 days, control 1.9%) was “did not alter” and the “mammary tumor size (tumor weight as percentage of total body weight)” value ([3]; bexarotene 10 days, control diet 3.2%) was “did not reduce”. The “cleaved caspase 3 in tumors” value ([3]; bexarotene 10 days, immunohistochemistry) was “did not increase”, the “reduction of CD206 expression in tumor lysates” value [3, 5] was “did not induce a change” and the “reduction of p-STAT1 expression in whole tumor lysates” value [3, 5] was “no changes”. The SREBP (SREBP) was 2.13, the SREBP activation (SREBP; fold induction compared to DMSO, several values per cell, Table 6) was 2.7 fold induction and 2.9 fold induction and 1.95 fold induction and the PD-L1 (PD-L1; 100 nM) was 58.5. The “PD-L1 Levels” value (PD-L1; 100 nM) was 51.2, the “PD-L1 Levels” value (PD-L1; 1000 nM) was 64 and the “PD-L1 levels in RAW 264.7 cells with E18-14C-27C conditioned media” value (PD-L1; 24 hours) was “no changes”. For the same molecule, the “binding to the RAR receptor” value (RAR receptor) was “limited RAR binding”, the “Triglyccerides (Rodent Models)” value [4] was “Elevated” and the activity at 0.1 µM ([1]; Mus musculus, RAW264.7, 24 h, at 100 nM, percent of the LPS-stimulated control, lower is better, Table 6) was 30 to 35%. The activity at 0.125 µM ([1]; Mus musculus) was 78%, the activity at 0.5 µM ([1]; Mus musculus) was 32.4% and the iNOS ([1]; at 100 nM, comparators of Table 3) was 22-40% at 100 nM. The “Lung Cancer Model Rank Order” value (Lung Cancer Model) was 5.
